≈ marks a conversion by molar mass, not a printed value.
Legend:
Staph. aureus 209P [1] = test: MIC, standard microtiter assay; assay type: cell-based; settings: Staphylococcus aureus; Staph. aureus 209P; Table VIII; read-out: MIC
Method: (§1) The in vitro minimal inhibitory concentration (MIC) of the AAJ-271 complex and its factors, and vancomycin were determined for a number of microorganisms using the standard microtite'r assay procedures. The results are shown in the following tables, each of which represents a different production run of the complex.
(§2) The in vitro minimal inhibitory concentration (MIC) and the in vitro minimal bactericidal concentration (MBC) of the AAJ-271 aglycones, pseudo-aglycone and vancomycin were determined for a number of microorganisms using the standard microtiter assay procedures.

Staph. aureus 2620 [2] = test: MIC, standard microtiter assay; assay type: cell-based; settings: Staphylococcus aureus; Staph. aureus 2620; Table VIII; read-out: MIC
Method: as §1, §2

Staph. aureus 675 [3] = test: MIC, standard microtiter assay; assay type: cell-based; settings: Staphylococcus aureus; Staph. aureus 675; Table VIII; read-out: MIC
Method: as §1, §2

Staph. aureus 910 [4] = test: MIC, standard microtiter assay; assay type: cell-based; settings: Staphylococcus aureus; Staph. aureus 910; Table VIII; read-out: MIC
Method: as §1, §2

Staph. aureus HH127 [5] = test: MIC, standard microtiter assay; assay type: cell-based; settings: Staphylococcus aureus; Staph. aureus HH127; Table VIII; read-out: MIC
Method: as §1, §2

Staph. epidermidis 2256 [6] = test: MIC, standard microtiter assay; assay type: cell-based; settings: Staphylococcus epidermidis; Staph. epidermidis 2256; Table VIII; read-out: MIC
Method: as §1, §2

Staph. epidermidis 2265 [7] = test: MIC, standard microtiter assay; assay type: cell-based; settings: Staphylococcus epidermidis; Staph. epidermidis 2265; Table VIII; read-out: MIC
Method: as §1, §2

Staph. epidermidis 2479 [8] = test: MIC, standard microtiter assay; assay type: cell-based; settings: Staphylococcus epidermidis; Staph. epidermidis 2479; Table VIII; read-out: MIC
Method: as §1, §2

Staph. epidermidis 2588 [9] = test: MIC, standard microtiter assay; assay type: cell-based; settings: Staphylococcus epidermidis; Staph. epidermidis 2588; Table VIII; read-out: MIC
Method: as §1, §2

Staph. haemolyticus 651 [10] = test: MIC, standard microtiter assay; assay type: cell-based; settings: Staphylococcus haemolyticus; Staph. haemolyticus 651; Table VIII; read-out: MIC
Method: as §1, §2

[11] = test system: Staph. saprophyticus 2657; test: MIC, standard microtiter assay; assay type: cell-based; settings: Staphylococcus saprophyticus; Staph. saprophyticus 2657; Table VIII; read-out: MIC
Method: as §1, §2

Strep. faecalis 34358 [12] = test: MIC, standard microtiter assay; assay type: cell-based; settings: Enterococcus faecalis; Strep. faecalis 34358; Table VIII; read-out: MIC
Method: as §1, §2

Strep. faecalis 657 [13] = test: MIC, standard microtiter assay; assay type: cell-based; settings: Enterococcus faecalis; Strep. faecalis 657; Table VIII; read-out: MIC
Method: as §1, §2

[14] = test system: Strep. pyogenes (Group A); test: MIC, standard microtiter assay; assay type: cell-based; settings: Streptococcus pyogenes; Strep. pyogenes (Group A); Table VIII; read-out: MIC
Method: as §1, §2

[15] = test system: Staph. aureus 209P vancomycin resistant mutant; test: MIC, standard microtiter assay; assay type: cell-based; settings: Staphylococcus aureus, read-out: MIC in μg/ml
Method: as §2

Staph. epidermidis 2261 [16] = test: MIC, standard microtiter assay; assay type: cell-based; settings: Staphylococcus epidermidis; Staph. epidermidis 2261; Table VIII; read-out: MIC
Method: as §2

Staph. aureus 2620 [17] = test: MBC, standard assay procedures; assay type: cell-based; settings: Staphylococcus aureus; Staph. aureus 2620; Table VIII; read-out: MBC
Method: (§3) The in vitro minimal bactericidal concentration (MBC) of the AAJ-271 C, C2 and C3 factors and vancomycin were determined for a number of microorganisms using standard assay procedures.
as §2

Staph. aureus 675 [18] = test: MBC, standard assay procedures; assay type: cell-based; settings: Staphylococcus aureus; Staph. aureus 675; Table VIII; read-out: MBC
Method: as §3, §2

Staph. aureus HH127 [19] = test: MBC, standard assay procedures; assay type: cell-based; settings: Staphylococcus aureus; Staph. aureus HH127; Table VIII; read-out: MBC
Method: as §3, §2

Staph. epidermidis 2265 [20] = test: MBC, standard assay procedures; assay type: cell-based; settings: Staphylococcus epidermidis; Staph. epidermidis 2265; Table VIII; read-out: MBC
Method: as §3, §2

Staph. epidermidis 2479 [21] = test: MBC, standard assay procedures; assay type: cell-based; settings: Staphylococcus epidermidis; Staph. epidermidis 2479; Table VIII; read-out: MBC
Method: as §3, §2

Staph. haemolyticus 651 [22] = test: MBC, standard assay procedures; assay type: cell-based; settings: Staphylococcus haemolyticus; Staph. haemolyticus 651; Table VIII; read-out: MBC
Method: as §3, §2

Strep. faecalis 34358 [23] = test: MBC, standard assay procedures; assay type: cell-based; settings: Enterococcus faecalis; Strep. faecalis 34358; Table VIII; read-out: MBC
Method: as §3, §2

Strep. faecalis 657 [24] = test: MBC, standard assay procedures; assay type: cell-based; settings: Enterococcus faecalis; Strep. faecalis 657; Table VIII; read-out: MBC
Method: as §3, §2

[25] = test system: Staph. aureus 209P vancomycin resistant mutant; test: MBC, standard assay procedures; assay type: cell-based; settings: Staphylococcus aureus, read-out: MBC in μg/ml
Method: as §2

Staph. aureus 209P [26] = test: MBC, standard assay procedures; assay type: cell-based; settings: Staphylococcus aureus; Staph. aureus 209P; Table VIII; read-out: MBC
Method: as §2

Staph. aureus 910 [27] = test: MBC, standard assay procedures; assay type: cell-based; settings: Staphylococcus aureus; Staph. aureus 910; Table VIII; read-out: MBC
Method: as §2

Staph. epidermidis 2256 [28] = test: MBC, standard assay procedures; assay type: cell-based; settings: Staphylococcus epidermidis; Staph. epidermidis 2256; Table VIII; read-out: MBC
Method: as §2

Staph. epidermidis 2261 [29] = test: MBC, standard assay procedures; assay type: cell-based; settings: Staphylococcus epidermidis; Staph. epidermidis 2261; Table VIII; read-out: MBC
Method: as §2

Staph. epidermidis 2588 [30] = test: MBC, standard assay procedures; assay type: cell-based; settings: Staphylococcus epidermidis; Staph. epidermidis 2588; Table VIII; read-out: MBC
Method: as §2

[31] = test system: Staph. saprophyticus 2657; test: MBC, standard assay procedures; assay type: cell-based; settings: Staphylococcus saprophyticus; Staph. saprophyticus 2657; Table VIII; read-out: MBC
Method: as §2

[32] = test system: Strep. pyogenes (Group A); test: MBC, standard assay procedures; assay type: cell-based; settings: Streptococcus pyogenes; Strep. pyogenes (Group A); Table VIII; read-out: MBC
Method: as §2

Staph. aureus HH127 [33] = test: Mouse protection assay; assay type: in vivo; settings: Staphylococcus aureus, 1 h; mice; intraperitoneal s.c. infection; Staph. aureus HH127, Dosage as No. of LD50's = 4; treatment one hour post infection; Table X; read-out: ED50
Strep. faecalis 34358 [34] = test: Mouse protection assay; assay type: in vivo; settings: Enterococcus faecalis, 1 h; mice; intraperitoneal s.c. infection; Strep. faecalis 34358, Dosage as No. of LD50's = 3.5; treatment one hour post infection; Table X; read-out: ED50
Staph. aureus 2630 = test: Mouse protection assay; assay type: in vivo; settings: Staphylococcus aureus, 2630, 1 h

`CNC1C(=O)NC2Cc3ccc(cc3)Oc3cc4cc(c3O)Oc3ccc(cc3Cl)C(O)C3NC(=O)C(NC(=O)C4NC(=O)C(NC2=O)c2cc(cc(O)c2Cl)Oc2cc1ccc2O)c1ccc(O)c(c1)-c1c(O)cc(O)cc1C(C(=O)O)NC3=O` (centres unmarked) [Aglycone 1] showed an MIC (Staph. aureus 209P [1]) of 0.4 µg/mL (≈ 0.33 µM), an MIC (Staph. aureus 2620 [2]) of 0.4 µg/mL (≈ 0.33 µM) and an MIC (Staph. aureus 675 [3]) of 0.8 µg/mL (≈ 0.66 µM). For the same molecule, the MIC (Staph. aureus 910 [4]) was 0.4 µg/mL (≈ 0.33 µM), the MIC (Staph. aureus HH127 [5]) was 0.4 µg/mL (≈ 0.33 µM) and the MIC (Staph. epidermidis 2256 [6]) was 1.6 µg/mL (≈ 1.32 µM). The MIC (Staph. epidermidis 2265 [7]) was 0.4 µg/mL (≈ 0.33 µM), the MIC (Staph. epidermidis 2479 [8]) was 0.8 µg/mL (≈ 0.66 µM) and the MIC (Staph. epidermidis 2588 [9]) was 0.8 µg/mL (≈ 0.66 µM). It also gave an MIC (Staph. haemolyticus 651 [10]) of 3.1 µg/mL (≈ 2.56 µM), an MIC [11] of 0.8 µg/mL (≈ 0.66 µM) and an MIC (Strep. faecalis 34358 [12]) of 1.6 µg/mL (≈ 1.32 µM). It also gave an MIC (Strep. faecalis 657 [13]) of 1.6 µg/mL (≈ 1.32 µM), an MIC [14] of 0.8 µg/mL (≈ 0.66 µM) and an MIC [15] of 25 µg/mL (≈ 20.6 µM). For the same molecule, the MIC (Staph. epidermidis 2261 [16]) was 0.8 µg/mL (≈ 0.66 µM), the MBC (Staph. aureus 2620 [17]) was 3.1 µg/mL (≈ 2.56 µM) and the MBC (Staph. aureus 675 [18]) was 6.3 µg/mL (≈ 5.19 µM). The MBC (Staph. aureus HH127 [19]) was 1.6 µg/mL (≈ 1.32 µM), the MBC (Staph. epidermidis 2265 [20]) was 0.4 µg/mL (≈ 0.33 µM) and the MBC (Staph. epidermidis 2479 [21]) was 6.3 µg/mL (≈ 5.19 µM). For the same molecule, the MBC (Staph. haemolyticus 651 [22]) was 6.3 µg/mL (≈ 5.19 µM), the MBC (Strep. faecalis 34358 [23]) was 100 µg/mL (≈ 82.4 µM) and the MBC (Strep. faecalis 657 [24]) was 100 µg/mL (≈ 82.4 µM). The MBC [25] was 25 µg/mL (≈ 20.6 µM), the MBC (Staph. aureus 209P [26]) was 3.1 µg/mL (≈ 2.56 µM) and the MBC (Staph. aureus 910 [27]) was 3.1 µg/mL (≈ 2.56 µM). For the same molecule, the MBC (Staph. epidermidis 2256 [28]) was 1.6 µg/mL (≈ 1.32 µM), the MBC (Staph. epidermidis 2261 [29]) was 1.6 µg/mL (≈ 1.32 µM) and the MBC (Staph. epidermidis 2588 [30]) was 0.8 µg/mL (≈ 0.66 µM). The MBC [31] was 1.6 µg/mL (≈ 1.32 µM), the MBC [32] was 0.8 µg/mL (≈ 0.66 µM) and the ED50 (Staph. aureus HH127 [33]) was 0.88 mg/kg. It also gave an ED50 (Strep. faecalis 34358 [34]) of 5 mg/kg and an ED50 (Staph. aureus 2630) of 6.4 mg/kg.
